The source of these data is US11744814B2, “Methods and pharmaceutical preparations for elevating blood hemoglobin and oxygen saturation levels with hydroxycitric acid” (GLYKON TECHNOLOGIES GROUP, LLC, priority 2020, dated 2023).

For assay [1], the system named is intestinal alpha-glucosidase. Conditions: background statement, in vitro; cited from earlier work.
Another assay deals with T1, pancreatic alpha-amylase (Homo sapiens, UniProt P04746).
T1 sequence (P04746 16-511): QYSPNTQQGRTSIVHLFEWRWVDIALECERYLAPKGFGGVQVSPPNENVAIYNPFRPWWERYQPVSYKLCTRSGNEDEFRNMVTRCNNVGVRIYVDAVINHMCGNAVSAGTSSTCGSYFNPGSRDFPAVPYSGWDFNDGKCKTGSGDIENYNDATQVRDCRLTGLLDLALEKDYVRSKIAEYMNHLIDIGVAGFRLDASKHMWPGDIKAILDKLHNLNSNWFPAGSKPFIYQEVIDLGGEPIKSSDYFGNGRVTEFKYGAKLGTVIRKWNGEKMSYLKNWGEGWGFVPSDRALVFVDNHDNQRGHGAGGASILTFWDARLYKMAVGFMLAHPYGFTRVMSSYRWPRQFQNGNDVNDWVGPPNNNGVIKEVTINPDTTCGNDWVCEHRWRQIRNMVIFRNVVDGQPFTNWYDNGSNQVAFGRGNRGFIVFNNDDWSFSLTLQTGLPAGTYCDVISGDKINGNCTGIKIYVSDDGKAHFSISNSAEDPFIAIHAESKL
Conditions: background statement, in vitro; cited from earlier work.

The nature of assay [2]: Blood levels of biomolecules before and 90 minutes after the Example 1 formulation. In kind it is in vivo, human. The note with it: conclusion over the examples, HCA administration. On the procedure:
Subject 5 was a person, weighing approximately 285 pounds and with a normal fasting blood sugar level of 115-120. First, blood was drawn from Subject 5 and levels of various biomolecules were measured. Next, Subject 5 was administered 16.66 ml of the Example 1 formulation on an empty stomach, i.e. wherein with each 16.66 ml the subject received 5,000 mg of the potassium-magnesium (−)-hydroxycitric acid salt, corresponding to 3490 mg of (−)-hydroxycitric acid. 90 minutes after the administration, blood was drawn from Subject 5 and levels of the various biomolecules were remeasured.
Subject 6 was administered 16.66 ml of the Example 1 formulation on an empty stomach, i.e. wherein with each 16.66 ml the subject received 5,000 mg of the potassium-magnesium (−)-hydroxycitric acid salt, corresponding to 3490 mg of (−)-hydroxycitric acid. 90 minutes after the administration, blood was drawn from Subject 6 and levels of the various biomolecules were remeasured.

Assay [3] in a line: fNIRS measurement of blood hemoglobin and oxygen saturation after the Example 1 formulation. In kind it is in vivo, human. The note with it: conclusion over the examples, HCA administration. On the procedure: Subjects 1-4 were orally administered the formulation of Example 1. The Subjects were given either one or two administrations of 8.33 ml of the aqueous formulation of Example 1 on an empty stomach, i.e. wherein with each 8.33 ml the subject received 2,500 mg of the potassium-magnesium (−)-hydroxycitric acid salt, corresponding to 1745 mg of (−)-hydroxycitric acid.
fNIRS testing (functional Near Infrared Spectroscopy) was used to measure blood hemoglobin and oxygen saturation. fNIRS can be used to determine real-time peripheral and cerebral hemodynamic responses. For example, relative changes in HbR (deoxygen saturation), HbO (oxygen saturation), and HbT (total hemoglobin concentration), etc. can be determined via application of Modified Beer Lambert Law. HbR, Hb=deoxygen saturation (shown as the thinnest and bottom dashed line in FIG. 1) HbO, HbO2=oxygen saturation (shown as the medium-thickness and middle line in FIG. 1) HbT=total hemoglobin concentration (shown as the darkest, thickest and top line in FIG. 1). On the graphs, time is in seconds.

The target in the next assay is T2, ATP citrate lyase (Homo sapiens, UniProt P53396).
T2 sequence (P53396 1-1101): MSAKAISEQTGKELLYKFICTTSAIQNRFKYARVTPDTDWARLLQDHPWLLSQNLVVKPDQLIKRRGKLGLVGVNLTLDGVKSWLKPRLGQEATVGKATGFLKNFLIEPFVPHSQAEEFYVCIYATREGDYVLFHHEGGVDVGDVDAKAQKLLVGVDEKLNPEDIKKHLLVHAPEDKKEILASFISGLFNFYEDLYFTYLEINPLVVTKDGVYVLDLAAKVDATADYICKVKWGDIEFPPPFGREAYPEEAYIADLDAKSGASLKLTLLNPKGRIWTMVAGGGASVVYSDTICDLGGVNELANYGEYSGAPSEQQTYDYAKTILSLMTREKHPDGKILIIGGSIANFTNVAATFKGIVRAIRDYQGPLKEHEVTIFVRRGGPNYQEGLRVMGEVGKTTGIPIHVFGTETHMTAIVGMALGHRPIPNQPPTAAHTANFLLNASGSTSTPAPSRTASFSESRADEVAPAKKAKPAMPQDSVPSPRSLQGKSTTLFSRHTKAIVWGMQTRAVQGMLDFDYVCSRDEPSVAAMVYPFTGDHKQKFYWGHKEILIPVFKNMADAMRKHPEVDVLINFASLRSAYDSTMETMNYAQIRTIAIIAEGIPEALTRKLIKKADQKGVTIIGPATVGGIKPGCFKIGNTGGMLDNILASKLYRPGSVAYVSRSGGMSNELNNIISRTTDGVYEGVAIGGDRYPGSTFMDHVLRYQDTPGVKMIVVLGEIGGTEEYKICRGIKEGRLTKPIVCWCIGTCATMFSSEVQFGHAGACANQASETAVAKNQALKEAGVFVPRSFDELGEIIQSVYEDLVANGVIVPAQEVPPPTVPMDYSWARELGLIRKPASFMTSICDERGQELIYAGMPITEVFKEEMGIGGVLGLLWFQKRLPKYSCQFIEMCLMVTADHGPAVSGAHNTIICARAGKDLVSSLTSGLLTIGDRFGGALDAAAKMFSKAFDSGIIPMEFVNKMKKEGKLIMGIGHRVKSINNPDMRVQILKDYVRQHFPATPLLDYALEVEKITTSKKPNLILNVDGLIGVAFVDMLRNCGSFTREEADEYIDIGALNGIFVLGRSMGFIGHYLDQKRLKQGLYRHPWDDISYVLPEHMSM
The note with it: background statement; cited from earlier work.

With `O=C(O)C[C@](O)(C(=O)O)[C@H](O)C(=O)O` [(2S,3R)-HCA], the “inhibition of intestinal alpha-glucosidase” value in assay [1] is “inhibits”. The “inhibition of pancreatic alpha-amylase” value at pancreatic alpha-amylase is recorded as “inhibits”.

Take `O=C(O)CC(O)(C(=O)O)C(O)C(=O)O` (stereo not drawn) [HCA, 1,2-dihydroxypropane-1,2,3-tricarboxylic acid]: in assay [2], the cortisol entry was “decreased”, the levels of ketones entry was “relatively stable or slightly lower” and the triglycerides result was “decreased”. The glucose entry in assay [2] (in some cases transient) is recorded as “increased”. In addition, in assay [3], the blood hemoglobin entry was “increased” and the oxygen saturation result is “increased”. The “inhibition of ATP citrate lyase” value on ATP citrate lyase is “competitive inhibitor”.
